ChEMBL document CHEMBL3045075, “Synthesis of ester and amide derivatives of 1-phenyl-3-(thiophen-3-yl)-1H-pyrazole-4-carboxylic acid and study of their anticancer activity” (Med Chem Res, 2013)
Active and inactive are the calls of the source. The calls are words filed in the database; no cut-off is given here.

Columns and labels:
MCF7 [1] = test: Anticancer activity against Homo sapiens (human) MCF7 cells assessed as cell viability at 50 uM after 48 hr by MTT assay (reference value: 100%); type: functional; details: MCF7, 48 h, read-out: Activity
HeLa [2] = test: Anticancer activity against Homo sapiens (human) HeLa cells assessed as cell viability at 50 uM after 48 hr by MTT assay (reference value: 100%); type: functional; details: read-out: Activity
HL-60 [3] = test: Growth inhibition of Homo sapiens (human) HL60 cells after 48 hr by MTT assay; type: functional, cell-based; details: HL-60, 48 h
MDA-MB-231 [4] = test: Anticancer activity against Homo sapiens (human) MDA-MB-231 cells assessed as cell viability at 50 uM after 48 hr by MTT assay (reference value: 100%); type: functional; details: MDA-MB-231, 48 h, read-out: Activity
Raji = test: Growth inhibition of Homo sapiens (human) Raji cells after 48 hr by MTT assay; type: functional, cell-based
MCF7 [5] = test: Growth inhibition of Homo sapiens (human) MCF7 cells after 48 hr by MTT assay; type: functional, cell-based
HeLa [6] = test: Growth inhibition of Homo sapiens (human) HeLa cells after 48 hr by MTT assay; type: functional, cell-based
MDA-MB-231 [7] = test: Growth inhibition of Homo sapiens (human) MDA-MB-231 cells after 48 hr by MTT assay; type: functional, cell-based
HL-60 [8] = test: Anticancer activity against Homo sapiens (human) HL60 cells assessed as cell viability at 50 uM after 48 hr by MTT assay (reference value: 100%); type: functional; details: HL-60, 48 h, read-out: Activity

Compound | viability at 50 µM (MCF7 [1]) [%] | viability at 50 µM (HeLa [2]) [%] | GI50 (HL-60 [3]) [µM] | viability at 50 µM (MDA-MB-231 [4]) [%] | GI50 (Raji) [µM] | IC50 (HL-60 [3]) [µM] | IC50 (Raji) [µM] | growth inhibition (GI) (MCF7 [5]) | growth inhibition (GI) (HeLa [6]) | growth inhibition (GI) (MDA-MB-231 [7]) | viability at 50 µM (HL-60 [8]) [%]
O=C(c1cn(-c2ccccc2)nc1-c1ccsc1)N1CCN(c2ccc(C(F)(F)F)cc2)CC1 | 85.9 | 80.7 | 36.7 | 84.2 | 32 | – | – | – | – | – | –
CN1CCN(C(=O)c2cn(-c3ccccc3)nc2-c2ccsc2)CC1 | – | – | – | – | – | > 100 | > 100 | – | – | – | –
Cc1cccc(C(C)C)c1OC(=O)c1cn(-c2ccccc2)nc1-c1ccsc1 | – | – | – | – | – | > 100 | > 100 | inactive | inactive | inactive | –
O=C(Oc1ccc(-c2ccccc2)cc1)c1cn(-c2ccccc2)nc1-c1ccsc1 | – | – | – | – | – | > 100 | > 100 | inactive | inactive | inactive | –
COc1ccc(OC(=O)c2cn(-c3ccccc3)nc2-c2ccsc2)cc1 | – | – | – | – | – | > 100 | > 100 | inactive | inactive | inactive | –
CCc1ccc(OC(=O)c2cn(-c3ccccc3)nc2-c2ccsc2)cc1 | – | – | – | – | – | > 100 | > 100 | inactive | inactive | inactive | –
O=C(c1cn(-c2ccccc2)nc1-c1ccsc1)N1CCN(c2ccncc2)CC1 | – | – | – | 87.4 | – | > 100 | > 100 | – | – | – | –
CC(C)c1cccc(OC(=O)c2cn(-c3ccccc3)nc2-c2ccsc2)c1 | – | – | – | – | – | > 100 | > 100 | inactive | inactive | inactive | –
O=C(c1cn(-c2ccccc2)nc1-c1ccsc1)N1CCOCC1 | – | – | – | 77.6 | – | > 100 | > 100 | – | – | – | –
O=C(c1cn(-c2ccccc2)nc1-c1ccsc1)N1CCC(Cc2ccccc2)CC1 | 90.7 | 71.8 | 28.3 | 82.8 | 25.2 | – | – | – | – | – | 39.1
O=C(Oc1ccc2ccccc2c1)c1cn(-c2ccccc2)nc1-c1ccsc1 | – | – | – | – | – | > 100 | > 100 | inactive | inactive | inactive | –
O=C(NCc1ccccc1)c1cn(-c2ccccc2)nc1-c1ccsc1 | – | 82.3 | – | 85 | – | – | – | – | – | – | –
O=C(O)c1cn(-c2ccccc2)nc1-c1ccsc1 | – | – | – | 80.9 | – | > 100 | > 100 | – | – | – | –
O=C(c1cn(-c2ccccc2)nc1-c1ccsc1)N1CCN(c2ccccc2)CC1 | – | 67.9 | – | 81.4 | – | – | – | – | – | – | –
